# Structures can show the parent of a compound that is named as a salt.
# Experiments:
# Format in all cases: physicochemical
# [1] = aqueous solubility of the salts and solvates; settings: water
# Procedure: The obtained solvate of the mono-lysine salt of ((2R,3R)-3-(4-(4-cyanophenyl)thiazol-2-yl)-2-(2,4-difluorophenyl)-1-(1H-1,2,4-triazol-1-yl)butan-2-yloxy)methyl dihydrogen phosphate is scaled up and fully characterized. Physical-chemical properties including solubility, stability, moisture uptake, compaction, etc., are evaluated and compared to the bis-lysine salt of Comparative Example 1.
# Also, Example 1 retains a high aqueous solubility (>200 mg/mL) similar to that of the bis-lysine salt of Comparative Example 1.
# [2] = physical stability under stressed storage conditions (area percent); settings: for degradation on storage: 2-week stability data
# [3] = moisture uptake (weight change versus relative humidity); settings: 60% RH
# Excerpt: Weight change (y-axis) versus relative humidity (x-axis) is shown, wherein adsorption is shown by -∘-, and desorption by -∘-.
# For instance, Comparative Example 1 has about 10% change in weight at 60% RH (FIG. 1), whereas Example 1 has about 2-2.5% change in weight at the same humidity level (FIG. 2). On average, the mono-lysine salt or solvate thereof has better stability over the bis-lysine form (FIG. 4).
compound,measurement,setting,value
"C[C@@H](c1nc(-c2ccc(C#N)cc2)cs1)[C@@](Cn1cncn1)(OCOP(=O)(O)O)c1ccc(F)cc1F [Example 1, ((2R,3R)-3-(4-(4-cyanophenyl)thiazol-2-yl)-2-(2,4-difluorophenyl)-1-(1H-1,2,4-triazol-1-yl)butan-2-yloxy)methyl dihydrogen phosphate mono-lysine salt ethanol solvate]",Solubility,[1],>200 mg/mL
same,solubility,[1],> 200 mg/mL
same,degradation on storage,[2]; 40° C./75% RH (open and closed),minimal degradation
same,degradation on storage,[2]; any other storage conditions,No degradation
same,Area Percent (AP as phosphonoxoxymethyl ether derivative of ravuconazole),"[2]; 5° C., 1 Week",98.47 Area Percent
same,Area Percent (AP as phosphonoxoxymethyl ether derivative of ravuconazole),"[2]; 5° C., 2 Weeks",99.60 Area Percent
same,Area Percent (AP as phosphonoxoxymethyl ether derivative of ravuconazole),"[2]; 5° C., 5 Days",99.59 Area Percent
same,Area Percent (AP as phosphonoxoxymethyl ether derivative of ravuconazole),"[2]; 25° C./60% RH (Closed), 1 Week",99.66 Area Percent
same,Area Percent (AP as phosphonoxoxymethyl ether derivative of ravuconazole),"[2]; 25° C./60% RH (Closed), 2 Weeks",99.21 Area Percent
same,Area Percent (AP as phosphonoxoxymethyl ether derivative of ravuconazole),"[2]; 25° C./60% RH (Closed), 5 Days",99.59 Area Percent
same,Area Percent (AP as phosphonoxoxymethyl ether derivative of ravuconazole),"[2]; 25° C./60% RH (Open), 1 Week",99.65 Area Percent
same,Area Percent (AP as phosphonoxoxymethyl ether derivative of ravuconazole),"[2]; 25° C./60% RH (Open), 2 Weeks",99.42 Area Percent
same,Area Percent (AP as phosphonoxoxymethyl ether derivative of ravuconazole),"[2]; 25° C./60% RH (Open), 5 Days",99.61 Area Percent
same,Area Percent (AP as phosphonoxoxymethyl ether derivative of ravuconazole),"[2]; 40° C./75% RH (Closed), 1 Week",99.05 Area Percent
same,Area Percent (AP as phosphonoxoxymethyl ether derivative of ravuconazole),"[2]; 40° C./75% RH (Closed), 2 Weeks",97.90 Area Percent
same,Area Percent (AP as phosphonoxoxymethyl ether derivative of ravuconazole),"[2]; 40° C./75% RH (Closed), 5 Days",99.20 Area Percent
same,Area Percent (AP as phosphonoxoxymethyl ether derivative of ravuconazole),"[2]; 40° C./75% RH (Open), 1 Week",98.76 Area Percent
same,Area Percent (AP as phosphonoxoxymethyl ether derivative of ravuconazole),"[2]; 40° C./75% RH (Open), 2 Weeks",96.90 Area Percent
same,Area Percent (AP as phosphonoxoxymethyl ether derivative of ravuconazole),"[2]; 40° C./75% RH (Open), 5 Days",98.97 Area Percent
same,Area Percent (AP as phosphonoxoxymethyl ether derivative of ravuconazole),"[2]; 60° C., 1 Week",99.70 Area Percent
same,Area Percent (AP as phosphonoxoxymethyl ether derivative of ravuconazole),"[2]; 60° C., 2 Weeks",99.73 Area Percent
same,Area Percent (AP as phosphonoxoxymethyl ether derivative of ravuconazole),"[2]; 60° C., 5 Days",99.70 Area Percent
same,Area Percent (AP as phosphonoxoxymethyl ether derivative of ravuconazole),"[2]; HIL/UV (Controlled), 1 Week",99.64 Area Percent
same,Area Percent (AP as phosphonoxoxymethyl ether derivative of ravuconazole),"[2]; HIL/UV (Controlled), 2 Weeks",99.68 Area Percent
same,Area Percent (AP as phosphonoxoxymethyl ether derivative of ravuconazole),"[2]; HIL/UV (Controlled), 5 Days",99.60 Area Percent
same,Area Percent (AP as phosphonoxoxymethyl ether derivative of ravuconazole),"[2]; HIL/UV (Exposed), 1 Week",98.68 Area Percent
same,Area Percent (AP as phosphonoxoxymethyl ether derivative of ravuconazole),"[2]; HIL/UV (Exposed), 2 Weeks",99.68 Area Percent
same,Area Percent (AP as phosphonoxoxymethyl ether derivative of ravuconazole),"[2]; HIL/UV (Exposed), 5 Days",99.61 Area Percent
same,Area Percent (AP as phosphonoxoxymethyl ether derivative of ravuconazole),[2]; Initial,99.56 Area Percent
same,change in weight (moisture uptake),[3],2-2.5%
same,weight change for adsorption,[3],< 2.5%
same,weight change for desorption,[3],< 5%
same,change in weight (moisture uptake),[3]; listed as mono-lysine monoethanolate,2-3%
"C[C@@H](c1nc(-c2ccc(C#N)cc2)cs1)[C@@](Cn1cncn1)(OCOP(=O)(O)O)c1ccc(F)cc1F.NCCCC[C@H](N)C(=O)O.NCCCC[C@H](N)C(=O)O [Comparative Example 1, Bis-lysine salt of (2R,3R)-3-[4-(4-cyanophenyl)thiazol-2-yl]-2-(2,4-difluorophenyl)-1-(1H-1,2,4-triazol-1-yl)-2-[(dihydrogenphosphonoxy)methoxy]butane, reference compound]",change in weight (moisture uptake),[3],about 10%
same,change in weight (moisture uptake),[3]; listed as bis-lysine monoethanolate,10%
"CC(C)O.C[C@@H](c1nc(-c2ccc(C#N)cc2)cs1)[C@@](Cn1cncn1)(OCOP(=O)(O)O)c1ccc(F)cc1F.NCCCC[C@H](N)C(=O)O [Example 5, ((2R,3R)-3-(4-(4-cyanophenyl)thiazol-2-yl)-2-(2,4-difluorophenyl)-1-(1H-1,2,4-triazol-1-yl)butan-2-yloxy)methyl dihydrogen phosphate mono-lysine salt isopropyl alcohol solvate]",weight change for adsorption,[3],< 0.5%

# Reference: patent publication US20060264406A1, “Mono-lysine salts of azole compounds” (Eisai Co., Ltd., priority 2005, published 2006)
